One block for each compound: values may come before it. Activity calls are given as the source filed them.
Experiments:
Type in all cases: functional
[1] = target: Sphingosine 1-phosphate receptor 4 (Homo sapiens, UniProt O95977); experiment: Late-stage fluorescence-based dose-response cell-based counterscreen assay to identify agonists of the Sphingosine 1-Phosphate Receptor 3 (S1P3): Sphingosine 1-Phosphate Receptor 4 (S1P4) agonist assay.
[2] = target: T1, Sphingosine 1-phosphate receptor 2 (Homo sapiens, UniProt O95136); experiment: Late-stage fluorescence-based dose-response cell-based counterscreen assay to identify agonists of the Sphingosine 1-Phosphate Receptor 3 (S1P3): Sphingosine 1-Phosphate Receptor 2 (S1P2) agonist assay.
T1 sequence (O95136 whole entry): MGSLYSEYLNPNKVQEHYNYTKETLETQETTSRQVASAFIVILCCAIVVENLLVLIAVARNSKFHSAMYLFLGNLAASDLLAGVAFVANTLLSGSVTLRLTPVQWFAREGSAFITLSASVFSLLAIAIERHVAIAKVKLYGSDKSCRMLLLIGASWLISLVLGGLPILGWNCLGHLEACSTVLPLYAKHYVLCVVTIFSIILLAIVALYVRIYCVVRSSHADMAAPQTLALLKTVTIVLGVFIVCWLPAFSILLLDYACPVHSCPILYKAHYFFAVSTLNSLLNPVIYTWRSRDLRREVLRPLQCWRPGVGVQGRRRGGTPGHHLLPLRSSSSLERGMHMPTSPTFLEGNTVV

[3] = target: DNA dC->dU-editing enzyme APOBEC-3G (Homo sapiens, UniProt Q9HC16); experiment: inhibition of APOBEC3G ssDNA deamination – biochemical, fluorescence, single-stranded DNA substrate, SAR follow-up (AID 602136); conditions: read-out: IC50_Mean
Sequence of DNA dC->dU-editing enzyme APOBEC-3G (Q9HC16 whole entry): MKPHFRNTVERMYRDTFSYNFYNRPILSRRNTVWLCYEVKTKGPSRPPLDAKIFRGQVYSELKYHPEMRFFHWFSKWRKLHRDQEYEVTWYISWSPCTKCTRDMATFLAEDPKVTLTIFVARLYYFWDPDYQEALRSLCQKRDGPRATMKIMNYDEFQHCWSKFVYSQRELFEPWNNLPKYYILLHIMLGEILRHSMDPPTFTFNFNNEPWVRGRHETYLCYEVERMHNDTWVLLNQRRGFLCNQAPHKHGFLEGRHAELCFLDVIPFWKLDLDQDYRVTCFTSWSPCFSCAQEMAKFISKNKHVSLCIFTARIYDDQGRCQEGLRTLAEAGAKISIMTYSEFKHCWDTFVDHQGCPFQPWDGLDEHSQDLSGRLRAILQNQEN

[4] = target: DNA dC->dU-editing enzyme APOBEC-3A (Homo sapiens, UniProt P31941); experiment: SAR analysis of small molecule inhibitors of APOBEC3A DNA Deaminase via a fluorescence-based single-stranded DNA deaminase assay.; conditions: read-out: IC50_Mean
Sequence of DNA dC->dU-editing enzyme APOBEC-3A (P31941 whole entry): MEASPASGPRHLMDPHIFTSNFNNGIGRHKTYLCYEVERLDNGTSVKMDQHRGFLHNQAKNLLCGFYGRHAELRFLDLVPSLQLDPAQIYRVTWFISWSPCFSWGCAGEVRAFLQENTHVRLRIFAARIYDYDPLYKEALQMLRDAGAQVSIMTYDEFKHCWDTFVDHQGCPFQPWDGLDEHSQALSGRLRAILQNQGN

[5] = target: Sphingosine 1-phosphate receptor 5 (Homo sapiens, UniProt Q9H228); experiment: activation of human S1P5 receptor – cell-based, fluorescence, set 2, counter-screen for S1P4 agonist project, late-stage follow-up (AID 504867)
[6] = target: T1, Sphingosine 1-phosphate receptor 2; experiment: activation of human S1P2 receptor – cell-based, fluorescence, set 2, counter-screen for S1P4 agonist project, late-stage follow-up (AID 504873)
[7] = target: Sphingosine 1-phosphate receptor 3 (Homo sapiens, UniProt Q99500); experiment: Late-stage fluorescence-based dose-response cell-based counterscreen assay to identify agonists of the Sphingosine 1-Phosphate Receptor 4 (S1P4): Sphingosine 1-Phosphate Receptor 3 (S1P3) agonist assay Set 2.
Sequence of Sphingosine 1-phosphate receptor 3 (Q99500 whole entry): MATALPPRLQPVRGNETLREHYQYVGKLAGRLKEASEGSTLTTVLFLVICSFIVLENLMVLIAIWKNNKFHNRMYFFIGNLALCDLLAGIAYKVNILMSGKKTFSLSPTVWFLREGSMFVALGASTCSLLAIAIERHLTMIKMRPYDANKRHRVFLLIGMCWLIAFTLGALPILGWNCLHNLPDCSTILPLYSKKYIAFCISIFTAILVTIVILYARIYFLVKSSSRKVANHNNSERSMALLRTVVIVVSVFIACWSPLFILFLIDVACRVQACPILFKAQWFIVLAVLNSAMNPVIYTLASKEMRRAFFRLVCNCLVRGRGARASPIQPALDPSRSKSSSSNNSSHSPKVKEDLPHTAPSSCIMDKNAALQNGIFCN

[8] = target: Sphingosine 1-phosphate receptor 1 (Homo sapiens, UniProt P21453); experiment: Late-stage fluorescence-based dose-response cell-based counterscreen assay to identify agonists of the Sphingosine 1-Phosphate Receptor 4 (S1P4): Sphingosine 1-Phosphate Receptor 1 (S1P1) agonist assay Set 2.
[9] = target: Glycogen synthase kinase-3 alpha (Homo sapiens, UniProt P49840);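 note: GSK3A result taken from a broad kinome-wide kinase panel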
Sequence of Glycogen synthase kinase-3 alpha (P49840 whole entry): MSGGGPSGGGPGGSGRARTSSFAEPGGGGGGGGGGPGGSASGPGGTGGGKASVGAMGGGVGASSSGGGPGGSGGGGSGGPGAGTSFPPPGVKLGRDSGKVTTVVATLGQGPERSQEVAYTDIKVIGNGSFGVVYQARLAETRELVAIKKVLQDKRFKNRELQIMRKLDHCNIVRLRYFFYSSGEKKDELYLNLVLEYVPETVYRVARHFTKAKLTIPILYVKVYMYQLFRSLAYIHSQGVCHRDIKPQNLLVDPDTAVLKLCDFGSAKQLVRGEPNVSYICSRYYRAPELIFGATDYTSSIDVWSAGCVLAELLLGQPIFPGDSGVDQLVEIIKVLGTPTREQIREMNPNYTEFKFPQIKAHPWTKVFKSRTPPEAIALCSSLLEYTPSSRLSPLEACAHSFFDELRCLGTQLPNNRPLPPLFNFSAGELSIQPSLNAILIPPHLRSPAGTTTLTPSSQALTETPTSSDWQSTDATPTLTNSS

[10] = target: 5'-AMP-activated protein kinase catalytic subunit alpha-1 (Homo sapiens, UniProt Q13131)
[11] = target: Glycogen synthase kinase-3 beta (Homo sapiens, UniProt P49841);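 note: value comes from a broad kinome profiling panel, with GSK3B as the panel member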
[12] = target: Ribosomal protein S6 kinase alpha-3 (Homo sapiens, UniProt P51812);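 note: measured within a kinome-wide profiling panel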
Sequence of Ribosomal protein S6 kinase alpha-3 (P51812 whole entry): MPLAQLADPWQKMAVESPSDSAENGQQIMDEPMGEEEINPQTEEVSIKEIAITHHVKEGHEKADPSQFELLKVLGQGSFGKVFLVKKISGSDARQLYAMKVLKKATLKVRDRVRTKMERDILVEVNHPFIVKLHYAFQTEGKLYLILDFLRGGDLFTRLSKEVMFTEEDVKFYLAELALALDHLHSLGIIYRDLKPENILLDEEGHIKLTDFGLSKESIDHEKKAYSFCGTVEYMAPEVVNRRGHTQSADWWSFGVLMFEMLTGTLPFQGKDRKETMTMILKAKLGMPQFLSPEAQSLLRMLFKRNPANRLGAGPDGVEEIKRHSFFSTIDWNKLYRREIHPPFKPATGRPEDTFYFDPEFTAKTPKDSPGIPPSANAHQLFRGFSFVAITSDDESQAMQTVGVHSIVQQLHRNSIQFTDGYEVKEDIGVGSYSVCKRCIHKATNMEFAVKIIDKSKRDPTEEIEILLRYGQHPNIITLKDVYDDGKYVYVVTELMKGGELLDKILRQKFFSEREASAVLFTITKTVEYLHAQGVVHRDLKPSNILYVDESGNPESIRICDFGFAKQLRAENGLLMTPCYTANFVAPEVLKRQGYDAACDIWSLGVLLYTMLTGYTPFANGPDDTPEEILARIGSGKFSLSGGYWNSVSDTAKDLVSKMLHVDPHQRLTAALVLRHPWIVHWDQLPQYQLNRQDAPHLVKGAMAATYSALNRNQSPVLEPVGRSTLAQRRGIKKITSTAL

[13] = target: Dual specificity mitogen-activated protein kinase kinase 2 (Homo sapiens, UniProt P36507); experiment: Navigating the Kinome. Panel member name: MAP2K2
Sequence of Dual specificity mitogen-activated protein kinase kinase 2 (P36507 whole entry): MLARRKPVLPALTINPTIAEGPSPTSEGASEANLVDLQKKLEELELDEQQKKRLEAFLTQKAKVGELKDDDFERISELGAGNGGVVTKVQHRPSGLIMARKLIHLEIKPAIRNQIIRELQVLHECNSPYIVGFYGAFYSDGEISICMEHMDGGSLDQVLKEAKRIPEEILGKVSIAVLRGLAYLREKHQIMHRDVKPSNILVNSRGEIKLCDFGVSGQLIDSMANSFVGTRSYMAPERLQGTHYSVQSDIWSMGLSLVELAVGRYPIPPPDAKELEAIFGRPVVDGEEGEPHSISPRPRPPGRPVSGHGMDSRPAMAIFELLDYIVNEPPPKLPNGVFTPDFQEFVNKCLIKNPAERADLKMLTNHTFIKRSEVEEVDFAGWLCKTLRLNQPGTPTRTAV

[14] = target: Macrophage colony-stimulating factor 1 receptor (Homo sapiens, UniProt P07333);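 note: value comes from the Navigating the Kinome screening panel, CSF1R member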
[15] = target: Hepatocyte growth factor receptor (Homo sapiens, UniProt P08581);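 note: kinase panel profiling across the kinome, with MET as the panel member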
Sequence of Hepatocyte growth factor receptor (P08581 whole entry): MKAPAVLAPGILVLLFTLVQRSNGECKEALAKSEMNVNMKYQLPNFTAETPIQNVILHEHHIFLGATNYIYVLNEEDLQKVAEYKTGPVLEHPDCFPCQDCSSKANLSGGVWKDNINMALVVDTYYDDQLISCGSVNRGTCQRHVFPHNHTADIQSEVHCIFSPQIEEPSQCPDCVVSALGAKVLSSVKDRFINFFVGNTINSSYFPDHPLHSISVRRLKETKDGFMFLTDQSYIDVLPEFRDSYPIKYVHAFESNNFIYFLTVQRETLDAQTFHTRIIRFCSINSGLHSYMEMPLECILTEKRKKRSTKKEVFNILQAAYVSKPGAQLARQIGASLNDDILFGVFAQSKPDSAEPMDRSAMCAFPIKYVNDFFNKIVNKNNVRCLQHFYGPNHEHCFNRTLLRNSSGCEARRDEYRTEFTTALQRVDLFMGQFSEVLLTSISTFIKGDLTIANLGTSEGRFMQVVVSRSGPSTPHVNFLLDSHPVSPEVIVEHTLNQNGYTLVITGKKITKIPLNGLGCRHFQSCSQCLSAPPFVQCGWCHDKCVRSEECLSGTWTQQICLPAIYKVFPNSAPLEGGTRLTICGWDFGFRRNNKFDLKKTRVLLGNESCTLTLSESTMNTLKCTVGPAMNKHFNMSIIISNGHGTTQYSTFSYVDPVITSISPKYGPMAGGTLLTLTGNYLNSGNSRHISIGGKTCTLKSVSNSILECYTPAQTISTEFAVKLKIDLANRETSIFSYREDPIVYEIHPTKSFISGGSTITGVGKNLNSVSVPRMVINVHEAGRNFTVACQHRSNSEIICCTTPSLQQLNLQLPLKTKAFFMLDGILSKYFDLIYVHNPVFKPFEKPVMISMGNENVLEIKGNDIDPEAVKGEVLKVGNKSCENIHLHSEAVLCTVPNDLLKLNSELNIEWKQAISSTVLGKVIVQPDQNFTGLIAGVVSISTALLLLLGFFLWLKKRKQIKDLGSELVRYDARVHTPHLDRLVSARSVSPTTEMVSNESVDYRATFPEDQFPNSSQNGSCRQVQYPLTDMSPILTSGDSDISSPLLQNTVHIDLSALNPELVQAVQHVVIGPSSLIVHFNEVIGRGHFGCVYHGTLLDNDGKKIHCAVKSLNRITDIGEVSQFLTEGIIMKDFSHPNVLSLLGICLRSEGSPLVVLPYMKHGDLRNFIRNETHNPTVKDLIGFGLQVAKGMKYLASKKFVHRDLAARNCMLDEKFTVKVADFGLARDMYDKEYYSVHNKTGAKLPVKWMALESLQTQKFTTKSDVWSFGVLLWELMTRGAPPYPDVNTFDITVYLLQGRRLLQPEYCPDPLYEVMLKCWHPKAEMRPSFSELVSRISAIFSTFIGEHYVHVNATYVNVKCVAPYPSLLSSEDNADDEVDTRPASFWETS

[16] = target: Receptor-type tyrosine-protein kinase FLT3 (Homo sapiens, UniProt P36888);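 note: FLT3 was tested as one member of a kinome-wide kinase panel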
[17] = target: Calcium/calmodulin-dependent protein kinase type II subunit alpha (Homo sapiens, UniProt Q9UQM7); experiment: Navigating the Kinome. Panel member name: CAMK2A
[18] = target: Serine/threonine-protein kinase Chk1 (Homo sapiens, UniProt O14757);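 note: measured as one member of a kinome-wide kinase profiling panel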
[19] = target: Dual specificity protein kinase CLK4 (Homo sapiens, UniProt Q9HAZ1)
[20] = target: Serine/threonine-protein kinase pim-1 (Homo sapiens, UniProt P11309)
[21] = target: Proto-oncogene tyrosine-protein kinase receptor Ret (Homo sapiens, UniProt P07949);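 note: measured within a kinome-wide profiling panel, RET as the panel member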
[22] = target: High affinity nerve growth factor receptor (Homo sapiens, UniProt P04629);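 note: NTRK1 tested as one member of a kinome-wide profiling panel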
[23] = target: cAMP-dependent protein kinase catalytic subunit alpha (Homo sapiens, UniProt P17612)
LIM domain kinase 1 = LIM domain kinase 1 (Homo sapiens, UniProt P53667); experiment: Navigating the Kinome. Panel member name: LIMK1
[24] = target: Tyrosine-protein kinase JAK2 (Homo sapiens, UniProt O60674);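 note: JAK2 tested as one member of a kinase panel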
[25] = target: Death-associated protein kinase 3 (Homo sapiens, UniProt O43293);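 note: measured as one member of a kinome-wide profiling panel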
[26] = target: BDNF/NT-3 growth factors receptor (Homo sapiens, UniProt Q16620);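 note: NTRK2 measured as one member of a broad kinome-wide kinase profiling panel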
[27] = target: Dual specificity tyrosine-phosphorylation-regulated kinase 1B (Homo sapiens, UniProt Q9Y463); experiment: Navigating the Kinome. Panel member name: DYRK1B
Sequence of Dual specificity tyrosine-phosphorylation-regulated kinase 1B (Q9Y463 whole entry): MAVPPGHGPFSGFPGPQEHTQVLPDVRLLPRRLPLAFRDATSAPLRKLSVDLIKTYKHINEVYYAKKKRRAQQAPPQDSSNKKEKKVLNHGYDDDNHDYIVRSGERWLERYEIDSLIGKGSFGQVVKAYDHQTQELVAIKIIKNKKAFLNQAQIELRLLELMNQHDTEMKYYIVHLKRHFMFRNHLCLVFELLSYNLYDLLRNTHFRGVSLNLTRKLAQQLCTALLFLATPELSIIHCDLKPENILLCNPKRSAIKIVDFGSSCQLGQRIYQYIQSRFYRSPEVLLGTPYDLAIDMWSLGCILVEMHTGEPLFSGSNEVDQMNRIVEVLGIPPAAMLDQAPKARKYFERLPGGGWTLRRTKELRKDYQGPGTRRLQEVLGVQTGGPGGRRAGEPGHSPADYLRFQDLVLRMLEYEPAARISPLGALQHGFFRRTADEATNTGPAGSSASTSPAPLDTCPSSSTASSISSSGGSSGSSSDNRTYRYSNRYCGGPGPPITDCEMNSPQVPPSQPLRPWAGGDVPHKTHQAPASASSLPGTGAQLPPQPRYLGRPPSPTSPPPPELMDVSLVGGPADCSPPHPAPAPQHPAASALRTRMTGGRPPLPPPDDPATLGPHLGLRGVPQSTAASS

[28] = target: Mitogen-activated protein kinase kinase kinase kinase 2 (Homo sapiens, UniProt Q12851);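 note: measured as one member of a kinome-wide kinase panel, with MAP4K2 as the panel entry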
Aurora kinase A = target: T2, Aurora kinase A (Homo sapiens, UniProt O14965);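 note: value from the Navigating the Kinome kinase panel profiling, panel entry STK6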
T2 sequence (O14965 whole entry): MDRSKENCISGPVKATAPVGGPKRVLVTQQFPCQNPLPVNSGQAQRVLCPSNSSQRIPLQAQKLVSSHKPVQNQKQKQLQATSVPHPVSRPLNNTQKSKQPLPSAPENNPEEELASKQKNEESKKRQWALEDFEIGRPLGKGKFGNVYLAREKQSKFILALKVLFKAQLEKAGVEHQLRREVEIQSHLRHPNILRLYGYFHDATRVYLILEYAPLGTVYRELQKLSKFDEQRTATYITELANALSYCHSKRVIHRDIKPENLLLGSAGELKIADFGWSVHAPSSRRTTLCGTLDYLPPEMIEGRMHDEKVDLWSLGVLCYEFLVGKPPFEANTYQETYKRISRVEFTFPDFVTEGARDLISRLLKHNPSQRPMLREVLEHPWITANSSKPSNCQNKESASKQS

[29] = target: Cyclin-dependent kinase 9 (Homo sapiens, UniProt P50750);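 note: value from the CDK9 entry of a kinome-spanning kinase panel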
[30] = target: Dual specificity tyrosine-phosphorylation-regulated kinase 1A (Homo sapiens, UniProt Q13627);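 note: measured against DYRK1A as one member of a broad kinome profiling panel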
[31] = target: Platelet-derived growth factor receptor beta (Homo sapiens, UniProt P09619);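 note: value comes from a kinome panel, with PDGFRB tested as one panel member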
[32] = target: Vascular endothelial growth factor receptor 2 (Homo sapiens, UniProt P35968)
[33] = target: Tyrosine-protein kinase receptor TYRO3 (Homo sapiens, UniProt Q06418);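 note: TYRO3 value obtained as one member of a kinome-wide profiling panel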
[34] = target: Mitogen-activated protein kinase 8 (Homo sapiens, UniProt P45983);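 note: value comes from one member of a kinome-wide kinase profiling panel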
[35] = target: Cyclin-dependent kinase 19 (Homo sapiens, UniProt Q9BWU1); experiment: Navigating the Kinome. Panel member name: CDC2L6
[36] = target: Protein kinase C theta type (Homo sapiens, UniProt Q04759); experiment: Navigating the Kinome. Panel member name: PRKCQ
[37] = target: Tyrosine-protein kinase ABL1 (Homo sapiens, UniProt P00519)

- EC50 [1]: > 50 µM (inactive)
- EC50 [2]: > 50 µM (inactive)
SMILES: O=C(c1cc(C2CC2)on1)N(C1CCCCCC1)C1CCCC1

SMILES: CN(CC1CCCN(CCc2ccc(Cl)cc2)C1)C(=O)c1cc2ncccn2n1 (centres undefined)
- IC50 [3]: > 99 µM (inactive)
- IC50 [4]: > 99 µM (inactive)

- EC50 [5]: > 25 µM (inactive)
- EC50 [6]: > 25 µM (inactive)
- EC50 [7]: > 25 µM (inactive)
- EC50 [8]: 4.47 µM (active)
SMILES: C/N=C1/S/C(=C/c2cc(C)n(-c3ccc(F)cc3F)c2C)C(=O)N1C

- Ki [9]: 100 µM (active)
- Ki [10]: 79.4 µM (active)
- Ki [11]: 31.6 µM (active)
- Ki [12]: 63.1 µM (active)
- Ki [13]: 100 µM (active)
- Ki [14]: > 100 µM (inactive)
- Ki [15]: 79.4 µM (active)
- Ki [16]: 79.4 µM (active)
- Ki [17]: 79.4 µM (active)
- Ki [18]: 3.98 µM (active)
- Ki [19]: 7.94 µM (active)
- Ki [20]: 12.6 µM (active)
- Ki [21]: 39.8 µM (active)
- Ki [22]: 15.8 µM (active)
- Ki [23]: > 50.1 µM (inactive)
- Ki (LIM domain kinase 1): 3.98 µM (active)
- Ki [24]: 79.4 µM (active)
- Ki [26]: 100 µM (active)
- Ki [27]: 50.1 µM (active)
- Ki [28]: 63.1 µM (active)
- Ki (Aurora kinase A): > 50.1 µM (inactive)
- Ki [29]: > 63.1 µM (inactive)
- Ki [30]: > 63.1 µM (inactive)
- Ki [31]: > 79.4 µM (inactive)
- Ki [32]: > 79.4 µM (inactive)
- Ki [33]: 100 µM (active)
- Ki [34]: 50.1 µM (active)
- Ki [35]: > 100 µM (inactive)
- Ki [36]: > 79.4 µM (inactive)
- Ki [37]: 63.1 µM (active)
SMILES: COc1ccc(-c2ccc(N)cc2)c2cnoc12
- Ki [25]: 79.4 µM (active)
